Measured values published in patent US4504463A, “Process for making a lyophilized product for use in skeletal imaging” (Mallinckrodt, Inc., priority 1982, dated 1985).

Experiment: Skeletal imaging with scintillation camera after intravenous injection
Assay type: in vivo, adult human
Settings: for results when used instead of the disodium salt of HMDP: carrier replaced in Example I kit; for results when used instead of AMDP: carrier replaced in Example II kit
Experimental: An imaging agent is prepared using this kit by adding about 5 ml of a pertechnetate-Tc99m physiological saline with an activity of about 75 mCi, from a commercial technetium source. The vial is agitated until the kit components are dissolved. About 1 ml of the agent is slowly injected, over a period of about 30 seconds, into an adult human subject weighing about 75 kg.

CC(O)(P(=O)(O)O)P(=O)(O)O [EHDP, ethane-1-hydroxy-1,1-diphosphonic acid]
results when used instead of the disodium salt of HMDP: substantially similar results

O=P(O)(O)C(O)P(=O)(O)O [HMDP, methanehydroxydiphosphonic acid]
results when used instead of the disodium salt of HMDP: substantially similar results

O=P(O)(O)CP(=O)(O)O [MDP, methanediphosphonic acid]
results when used instead of the disodium salt of HMDP: substantially similar results

NCC(O)(P(=O)(O)O)P(=O)(O)O [ethane-1-hydroxy-2-amino-1,1-diphosphonic acid]
results when used instead of AMDP: substantially similar results

OCc1cc(O)ccc1O [gentisyl alcohol]
results when used instead of gentisic acid (stabilizer replaced in Example I kit): substantially similar results

Oc1ccc(O)cc1 [hydroquinone]
results when used instead of gentisic acid (in vivo): substantially similar results

CN(C)C(P(=O)(O)O)P(=O)(O)O [methane-N,N-dimethylaminodiphosphonic acid]
results when used instead of AMDP: substantially similar results

CNC(P(=O)(O)O)P(=O)(O)O [methane-N-methylaminodiphosphonic acid]
results when used instead of AMDP: substantially similar results

NC(O)(P(=O)(O)O)P(=O)(O)O [methaneaminohydroxydiphosphonic acid]
results when used instead of AMDP: substantially similar results

O=S(=O)([O-])[O-].[Sn+2] [stannous sulfate]
results when used with or instead of stannous chloride (reductant replaced or added in Example II kit): substantially similar results

stannous fluoride
results when used with or instead of stannous chloride (in vivo): substantially similar results
